Laboratory results reported in patent US10597388B2, “Pyridazinone herbicides” (FMC CORPORATION, priority 2014, dated 2020).

Columns and labels:
Type in all cases: in vivo
[1] = test system: barnyardgrass (Echinochloa crus-galli); test: Test A greenhouse herbicide test, pre- and postemergence
How it was run: (§1)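 Seeds sown in loam–sand blend got a preemergence directed soil spray of compound in non-phytotoxic solvent with surfactant. Postemergence treatment was given at 2–10 cm, one- to two-leaf stage. After ~10 d in greenhouse, injury was rated visually vs untreated controls, 0 (no effect) to 100 (complete control).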

[2] = test system: ragweed (common ragweed, Ambrosia elatior); test: as above
How it was run: as §1

kochia (Kochia scoparia) = test: as above
How it was run: as §1

[3] = test system: wheat (Triticum aestivum); test: as above; settings: Postemergence
How it was run: as §1

[4] = test system: foxtail, giant (giant foxtail, Setaria faberii); test: as above
How it was run: as §1

[5] = test system: ryegrass, Italian (Italian ryegrass, Lolium multiflorum); test: as above
How it was run: as §1

[6] = test system: pigweed (Amaranthus retroflexus); test: as above
How it was run: as §1

[7] = test system: blackgrass (Alopecurus myosuroides); test: Test A greenhouse herbicide test, postemergence; settings: for Plant response rating, Blackgrass: 125 g ai/ha, 0 to 100 scale where 0 is no effect and 100 is complete control; for Blackgrass plant response rating: 500 g ai/ha, 0 to 100 scale, 0 is no effect, 100 is complete control
How it was run: (§2)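 Greenhouse postemergence test: formulated chemicals sprayed on one- to two-leaf plants (2 to 10 cm), grown in loam soil blended with sand. Injury assessed visually about 10 d later against untreated controls, scored 0 (no effect) to 100 (complete control).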

[8] = test system: galium (catchweed bedstraw, Galium aparine); test: Test A greenhouse herbicide test, postemergence
How it was run: as §2

corn (Zea mays) = test: Test C greenhouse herbicide test, pre- and postemergence
How it was run: (§3)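 Two application timings: at sowing into a soil/sand blend, and on 2–18 cm seedlings in peat-vermiculite potting mix. A non-phytotoxic, surfactant-containing solvent carried the compounds. Plants were compared with controls and rated visually on 0–100 after 13–15 d.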

[9] = test system: ryegrass, Italian (Italian ryegrass, Lolium multiflorum); test: as above
How it was run: as §3

[10] = Postemergence, 125 g ai/ha, 0 to 100 scale where 0 is no effect and 100 is complete control
[11] = Postemergence, 500 g ai/ha, 0 to 100 scale, 0 is no effect, 100 is complete control
[12] = Preemergence, 125 g ai/ha, 0 to 100 scale where 0 is no effect and 100 is complete control
[13] = Preemergence, 500 g ai/ha, 0 to 100 scale where 0 is no effect and 100 is complete control
[14] = Postemergence, 500 g ai/ha, visual rating after approx. 10 d, 0 to 100 scale (0 no effect, 100 complete control)
[15] = 125 g ai/ha, 0 to 100 scale where 0 is no effect and 100 is complete control
[16] = 500 g ai/ha, visual rating after approx. 10 d, 0 to 100 scale (0 no effect, 100 complete control)
[17] = Postemergence, 31 g ai/ha, 0 to 100 scale (0 no effect, 100 complete control)
[18] = Postemergence, 125 g ai/ha, scale 0 to 100, 0 is no effect, 100 is complete control
[19] = Postemergence, 250 g ai/ha, scale 0 to 100, 0 no effect, 100 complete control, 13 to 15 d
[20] = postemergence, 62 g ai/ha, scale 0 to 100, 0 no effect, 100 complete control
[21] = Postemergence, 31 g ai/ha, scale 0 to 100 (0 no effect, 100 complete control)
[22] = Preemergence, 31 g ai/ha, scale 0 to 100, 0 is no effect, 100 is complete control
[23] = Preemergence, 62 g ai/ha, scale 0 to 100, 0 is no effect, 100 is complete control
[24] = Preemergence, 125 g ai/ha, scale 0 to 100, 0 is no effect, 100 is complete control
[25] = Preemergence, 250 g ai/ha, scale 0 to 100 (0 no effect, 100 complete control)

CC(=O)Oc1c(C#N)nn(C)c(=O)c1-c1c(C)ccc2ccccc12 [Compound 98]
20: Kochia plant response rating (kochia (Kochia scoparia); [12]) | Ryegrass, Italian plant response rating [5, 12]
5: Corn plant response rating (corn (Zea mays); [17])
100: Plant response rating, Barnyardgrass [1, 13] | Plant response rating, Ragweed [2, 10] | Plant response rating, Ragweed [2, 14] | Plant response rating, Foxtail, Giant [4, 14] | Plant response rating, Foxtail, Giant [4, 13] | Plant response rating, Ryegrass, Italian [5, 14] | Plant response rating, Pigweed [6, 10] | Plant response rating, Pigweed [6, 14] | Pigweed plant response rating [6, 12] | Plant response rating, Pigweed [6, 13] | Plant response rating, Galium [8, 15] | Plant response rating, Galium [8, 16]
90: Plant response rating, Barnyardgrass [1, 10] | Barnyardgrass plant response rating [1, 11] | Plant response rating, Ragweed [2, 13] | Plant response rating, Foxtail, Giant [4, 10] | Foxtail, Giant plant response rating [4, 12] | Plant response rating, Ryegrass, Italian [5, 10] | Plant response rating, Ryegrass, Italian [5, 13]
85: Plant response rating, Ryegrass, Italian [9, 19]
65: Plant response rating, Ryegrass, Italian [9, 18]
30: Plant response rating, Kochia (kochia (Kochia scoparia); [10]) | Plant response rating, Wheat [3, 15] | Plant response rating, Wheat [3, 16] | Plant response rating, Blackgrass [7] | Blackgrass plant response rating [7]
40: Barnyardgrass plant response rating [1, 12] | Plant response rating, Kochia (kochia (Kochia scoparia); [13])
45: Ryegrass, Italian plant response rating [9, 20]
15: Plant response rating, Corn (corn (Zea mays); [18]) | Plant response rating, Corn (corn (Zea mays); [19])
0: Corn plant response rating (corn (Zea mays); [20])
60: Ragweed plant response rating [2, 12] | Plant response rating, Kochia (kochia (Kochia scoparia); [14])

COc1nn(C)c(=O)c(-c2c(C)sc3ccc(Cl)cc23)c1O [Compound 100]
30: Plant response rating, Barnyardgrass [1, 10] | Barnyardgrass plant response rating [1, 11] | Kochia plant response rating (kochia (Kochia scoparia); [12])
100: Plant response rating, Kochia (kochia (Kochia scoparia); [14]) | Plant response rating, Ryegrass, Italian [5, 14] | Plant response rating, Ryegrass, Italian [5, 13] | Pigweed plant response rating [6, 12] | Plant response rating, Pigweed [6, 13] | Plant response rating, Galium [8, 16]
40: Ragweed plant response rating [2, 12] | Plant response rating, Blackgrass [7]
10: Plant response rating, Corn (corn (Zea mays); [19]) | Corn plant response rating (corn (Zea mays); [20])
0: Plant response rating, Wheat [3, 15]
90: Plant response rating, Ragweed [2, 10] | Plant response rating, Ragweed [2, 14] | Plant response rating, Foxtail, Giant [4, 13] | Plant response rating, Ryegrass, Italian [5, 10] | Ryegrass, Italian plant response rating [5, 12] | Plant response rating, Pigweed [6, 14] | Plant response rating, Galium [8, 15] | Plant response rating, Ryegrass, Italian [9, 18] | Ryegrass, Italian plant response rating [9, 20]
95: Plant response rating, Ryegrass, Italian [9, 19]
80: Plant response rating, Ragweed [2, 13] | Plant response rating, Foxtail, Giant [4, 10] | Plant response rating, Foxtail, Giant [4, 14] | Plant response rating, Pigweed [6, 10]
70: Plant response rating, Kochia (kochia (Kochia scoparia); [10]) | Plant response rating, Kochia (kochia (Kochia scoparia); [13]) | Foxtail, Giant plant response rating [4, 12] | Blackgrass plant response rating [7]
5: Corn plant response rating (corn (Zea mays); [17]) | Plant response rating, Corn (corn (Zea mays); [18])
20: Barnyardgrass plant response rating [1, 12] | Plant response rating, Barnyardgrass [1, 13] | Plant response rating, Wheat [3, 16]

Cc1nn(C)c(=O)c(-c2c(C)sc3ccc(Cl)cc23)c1O [Compound 104]
15: Plant response rating, Corn (corn (Zea mays); [24])
0: Plant response rating, Corn (corn (Zea mays); [23])
50: Plant response rating, Corn (corn (Zea mays); [18])
95: Ryegrass, Italian plant response rating [9, 25]
70: Plant response rating, Barnyardgrass [1, 10] | Foxtail, Giant plant response rating [4, 12]
10: Corn plant response rating (corn (Zea mays); [25])
100: Barnyardgrass plant response rating [1, 11] | Plant response rating, Barnyardgrass [1, 13] | Plant response rating, Ragweed [2, 10] | Plant response rating, Ragweed [2, 14] | Plant response rating, Ragweed [2, 13] | Plant response rating, Kochia (kochia (Kochia scoparia); [14]) | Kochia plant response rating (kochia (Kochia scoparia); [12]) | Plant response rating, Kochia (kochia (Kochia scoparia); [13]) | Plant response rating, Foxtail, Giant [4, 14] | Plant response rating, Foxtail, Giant [4, 13] | Plant response rating, Ryegrass, Italian [5, 10] | Plant response rating, Ryegrass, Italian [5, 14] | Ryegrass, Italian plant response rating [5, 12] | Plant response rating, Ryegrass, Italian [5, 13] | Pigweed plant response rating [6, 12] | Plant response rating, Pigweed [6, 13] | Plant response rating, Galium [8, 15] | Plant response rating, Galium [8, 16]
80: Barnyardgrass plant response rating [1, 12] | Plant response rating, Foxtail, Giant [4, 10] | Corn plant response rating (corn (Zea mays); [20])
5: Plant response rating, Corn (corn (Zea mays); [21]) | Plant response rating, Corn (corn (Zea mays); [22])
30: Plant response rating, Corn (corn (Zea mays); [19])
55: Plant response rating, Ryegrass, Italian [9, 22]
85: Plant response rating, Ryegrass, Italian [9, 23]
90: Ragweed plant response rating [2, 12] | Plant response rating, Kochia (kochia (Kochia scoparia); [10]) | Plant response rating, Pigweed [6, 10] | Plant response rating, Pigweed [6, 14] | Plant response rating, Blackgrass [7] | Blackgrass plant response rating [7] | Plant response rating, Ryegrass, Italian [9, 21] | Plant response rating, Ryegrass, Italian [9, 18] | Plant response rating, Ryegrass, Italian [9, 19] | Plant response rating, Ryegrass, Italian [9, 24]
20: Plant response rating, Wheat [3, 15] | Plant response rating, Wheat [3, 16]

CCCC(=O)Oc1c(C)nn(C)c(=O)c1-c1c(C)sc2c(C)cc(C)cc12 [Compound 106]
50: Plant response rating, Ryegrass, Italian [9, 22]
100: Plant response rating, Barnyardgrass [1, 13] | Plant response rating, Ragweed [2, 13] | Foxtail, Giant plant response rating [4, 12] | Plant response rating, Foxtail, Giant [4, 13] | Plant response rating, Ryegrass, Italian [5, 14] | Ryegrass, Italian plant response rating [5, 12] | Plant response rating, Ryegrass, Italian [5, 13] | Pigweed plant response rating [6, 12] | Plant response rating, Pigweed [6, 13] | Plant response rating, Galium [8, 15] | Plant response rating, Galium [8, 16]
20: Kochia plant response rating (kochia (Kochia scoparia); [12]) | Plant response rating, Wheat [3, 16] | Corn plant response rating (corn (Zea mays); [25])
10: Plant response rating, Corn (corn (Zea mays); [18]) | Plant response rating, Corn (corn (Zea mays); [19]) | Plant response rating, Corn (corn (Zea mays); [24]) | Corn plant response rating (corn (Zea mays); [20])
85: Plant response rating, Ryegrass, Italian [9, 21] | Plant response rating, Ryegrass, Italian [9, 24]
90: Barnyardgrass plant response rating [1, 11] | Plant response rating, Ragweed [2, 10] | Plant response rating, Ragweed [2, 14] | Ragweed plant response rating [2, 12] | Plant response rating, Kochia (kochia (Kochia scoparia); [14]) | Plant response rating, Kochia (kochia (Kochia scoparia); [13]) | Plant response rating, Foxtail, Giant [4, 10] | Plant response rating, Foxtail, Giant [4, 14] | Plant response rating, Ryegrass, Italian [5, 10] | Plant response rating, Pigweed [6, 10] | Plant response rating, Pigweed [6, 14] | Plant response rating, Blackgrass [7] | Blackgrass plant response rating [7] | Plant response rating, Ryegrass, Italian [9, 18] | Ryegrass, Italian plant response rating [9, 25]
35: Plant response rating, Ryegrass, Italian [9, 19]
0: Plant response rating, Wheat [3, 15] | Plant response rating, Corn (corn (Zea mays); [21]) | Plant response rating, Corn (corn (Zea mays); [22]) | Plant response rating, Corn (corn (Zea mays); [23])
80: Barnyardgrass plant response rating [1, 12]
70: Plant response rating, Barnyardgrass [1, 10] | Plant response rating, Kochia (kochia (Kochia scoparia); [10]) | Plant response rating, Ryegrass, Italian [9, 23]
